Assay results as given in patent publication US20250002450A1, “CATIONIC STEROID COMPOUNDS, METHOD OF OBTAINING THEREOF, FORMULATIONS COMPRISING THEREOF AND THEIR USES” (UNIVERSIDADE DO PORTO, priority 2021, published 2025).
Converted amounts (≈) assume the structure as drawn.

What was measured:
[1] = tested on: Streptococcuss pyogenes ATCC 19615; assay: Antibacterial MIC/MBC (broth microdilution); type: cell-based, Streptococcus pyogenes
Source text: (§1) Twelve reference bacterial strains and nine MDR clinically relevant bacterial strains were used in this study. Gram-negative bacteria comprised reference strains E. coli ATCC 25922, K. pneumoniae ATCC 13883, Salmonella enterica serovar Typhimurium CECT 443, P. aeruginosa ATCC 27853, A. baumannii ATCC 19606, C. jejuni ATCC 33560 (ATCC—American Type Culture Collection; CECT—Colección Espanola de Cultivos Tipo); clinical isolates E. coli SA/2, an extended-spectrum β-lactamase (ESBL)-producing strain and P. aeruginosa 33b, a pan-drug-resistant isolate; and animal isolates C. jejuni P5/4, a ciprofloxacin-resistant strain, C. jejuni 4432, C. jejuni 4433, C. jejuni 4448, and E. coli 2252, a COL-resistant strain [42]. Gram-positive strains included S. aureus ATCC 29213, E. faecalis ATCC 29212, S. pyogenes ATCC 19615, and environmental isolates methicillin-resistant S. aureus (MRSA) 66/1 [43], and VAN-resistant enterococci (VRE) E. faecalis B3/101 [44]. Gram-negative fish pathogens Yersinia ruckeri ATCC 29473, Listonella anguillarum ATCC 1924, and Tenacibaculum maritimum ATCC 43397 were also included.
(§2) Strains were kept in Trypto-Casein Soy agar (TSA—Biokar Diagnostics, Allone, Beauvais, France) slants and, before each assay, were sub-cultured in Mueller-Hinton agar (MHA—Biokar Diagnostics, Allone, Beauvais, France). Y. ruckeri ATCC 29473 and L. anguillarum ATCC 1924 were kept in Nutrient Agar (Condalab, Madrid, Spain) and T. maritimum ATCC 43397 was kept in TMM agar (Condalab, Madrid, Spain), and were sub-cultured in the respective culture media before each assay. For S. pyogenes ATCC 19615, CAMHB was supplemented with 3.75% lysed horse blood (LBH—Oxoid, Basingstoke, England), whereas for C. jejuni it was supplemented with 2.5% LHB. Colony-forming unit counts of the inoculum were conducted to determine the initial inoculum size (which should be approximately 5×10^5 CFU/mL). Sterility and growth controls were included in each assay. The 96-well U-shaped untreated polystyrene microtiter plates were incubated for 20 h at 37 degrees C. (42 degrees C. for C. jejuni, in a microaerophilic atmosphere) and the minimal inhibitory concentration (MIC) was determined as the lowest concentration of compound that prevented visible growth. The minimal bactericidal concentration (MBC) was determined by spreading 100 μL of the content of the wells with no visible growth on MH plates. The MBC was determined as the lowest concentration of compound that killed 99.9% of the initial inoculum after overnight incubation at 37 degrees C. Two independent assays were performed for reference and MDR strains.
(§3) An initial screening of the antibacterial activity of the compounds was performed by the Kirby-Bauer disk diffusion method, as recommended by the Clinical and Laboratory Standards Institute (CLSI). Briefly, sterile 6 mm blank paper disks (Oxoid, Basingstoke, England) impregnated with 15 μg of each compound were placed on inoculated MH agar plates. A blank disk with dimethylsulfoxide (DMSO) was used as a negative control. MH inoculated plates were incubated for 18-20 h at 37 degrees C. At the end of incubation, the inhibition halos where measured. The MIC was used to determine the antibacterial activity of each compound, in accordance with the recommendations of the CLSI. Two-fold serial dilutions of the compounds were prepared in Mueller-Hinton Broth 2 (MHB2—Sigma-Aldrich, St. Louis, MO, USA) within the concentration range of 0.062-64 μg/mL. CTX ranging between 0.031-16 μg/mL was used as a control. Sterility and growth controls were included in each assay. Purity checks and colony counts of the inoculum suspensions were also performed in order to ensure that the final inoculum density closely approximates the intended number (5×10^5 CFU/mL). The MIC was determined as the lowest concentration of compound that inhibited growth of the bacteria. The MBC was assessed by spreading 10 μL of culture collected from wells showing no visible growth on MH agar plates. […]

[2] = tested on: Tenacibaculum maritimum ATCC 43397; assay: Antibacterial disk diffusion; type: cell-based; conditions: Tenacibaculum maritimum ATCC 43397
Source text: as §1, §2, §3

[3] = tested on: E. coli 2252 (COL-resistant); assay: Antibacterial MIC/MBC (broth microdilution); type: cell-based, Escherichia coli
Source text: as §1, §2, §3

E. coli SA/2 (ESBL) = assay: Antibacterial MIC/MBC (broth microdilution); type: cell-based, Escherichia coli
Source text: as §1, §2, §3

[4] = tested on: Yersinia ruckeri ATCC 29473; assay: Antibacterial MIC/MBC (broth microdilution); type: cell-based
Source text: as §1, §2, §3

[5] = tested on: Listonella anguilarum ATCC 1924; assay: Antibacterial MIC/MBC (broth microdilution); type: cell-based
Source text: as §1, §2, §3

[6] = tested on: Staphylococcus aureus ATCC 29213; assay: Antibacterial MIC/MBC (broth microdilution); type: cell-based
Source text: as §1, §2, §3

[7] = tested on: Acinetobacter baumannii ATCC 19606; assay: Antibacterial MIC/MBC (broth microdilution); type: cell-based
Source text: as §1, §2, §3

[8] = tested on: Enterococcuss faecalis ATCC 29212; assay: Antibacterial MIC/MBC (broth microdilution); type: cell-based, Enterococcus faecalis
Source text: as §1, §2, §3

E. faecalis B3/101 (VRE) = assay: Antibacterial MIC/MBC (broth microdilution); type: cell-based, Enterococcus faecalis
Source text: as §1, §2, §3

C. jejuni 4432 = assay: Antibacterial MIC/MBC (broth microdilution); type: cell-based, Campylobacter jejuni
Source text: as §1, §2, §3

C. jejuni 4433 = assay: Antibacterial MIC/MBC (broth microdilution); type: cell-based, Campylobacter jejuni
Source text: as §1, §2, §3

C. jejuni 4448 = assay: Antibacterial MIC/MBC (broth microdilution); type: cell-based, Campylobacter jejuni
Source text: as §1, §2, §3

C. jejuni P5/4 = assay: Antibacterial MIC/MBC (broth microdilution); type: cell-based, Campylobacter jejuni
Source text: as §1, §2, §3

P. aeruginosa 33b (PDR) = assay: Antibacterial MIC/MBC (broth microdilution); type: cell-based, Pseudomonas aeruginosa
Source text: as §1, §2, §3

S. aureus 66/1 (MRSA) = assay: Antibacterial MIC/MBC (broth microdilution); type: cell-based, Staphylococcus aureus
Source text: as §1, §2, §3

[9] = Streptococcuss pyogenes ATCC 19615
[10] = Listonella anguilarum ATCC 1924
[11] = Acinetobacter baumannii ATCC 19606
[12] = Enterococcuss faecalis ATCC 29212

Compound: C[C@H](CCC(=O)NCCN)[C@H]1CC[C@H]2[C@@H]3CC[C@@H]4C[C@H](O)CC[C@]4(C)[C@H]3C[C@H](O)[C@]12C [Compound 1, (R)—N-(2-aminoethyl)-4-((3R,5R,8R,9S,10S,12S,13R,14S,17R)-3,12-dihydroxy-10,13-dimethylhexadecahydro-1H-cyclopenta[a]phenanthren-17-yl) pentanamida]
- antibacterial activity (in words) ([1]; S. pyogenes ATCC 19615): active
- MBC [1, 9]: 64 mg/L (≈ 147 µM)
- MIC [1, 9]: 64 mg/L (≈ 147 µM)
- Disk diffusion [2]: 20 mm
- antibacterial activity (in words) ([3]; E. coli 2252): active
- MIC ([3]; E. coli 2252 (COL-resistant)): 64 mg/L (≈ 147 µM)
- antibacterial activity (in words) (E. coli SA/2 (ESBL); E. coli SA/2): active
- MBC (E. coli SA/2 (ESBL); E. coli SA/2 (ESBL)): 32 mg/L (≈ 73.6 µM)
- MIC (E. coli SA/2 (ESBL); E. coli SA/2 (ESBL)): 32 mg/L (≈ 73.6 µM)
- MBC [4]: 32 mg/L (≈ 73.6 µM)
- MIC [4]: 16 mg/L (≈ 36.8 µM)
- antibacterial activity (in words) [4]: displayed antibacterial activity
- antibacterial activity (in words) ([5]; Listonella anguilarum): active
- MBC [5, 10]: 32 mg/L (≈ 73.6 µM)
- MIC [5, 10]: 16 mg/L (≈ 36.8 µM)
- MBC [6]: 16 mg/L (≈ 36.8 µM)
- MIC [6]: 16 mg/L (≈ 36.8 µM)
- antibacterial activity (in words) ([7]; A. baumannii ATCC 19606): displayed an inhibitory effect
- MBC [7, 11]: 64 mg/L (≈ 147 µM)
- MIC [7, 11]: 64 mg/L (≈ 147 µM)
- antibacterial activity (in words) ([8]; E. faecalis ATCC 29212): exhibited antimicrobial activity
- MBC [8, 12]: 32 mg/L (≈ 73.6 µM)
- MIC [8, 12]: 16 mg/L (≈ 36.8 µM)
- antibacterial activity (in words) (E. faecalis B3/101 (VRE); E. faecalis B3/101): displayed the same effect
- MBC (E. faecalis B3/101 (VRE); E. faecalis B3/101 (VRE)): 32 mg/L (≈ 73.6 µM)
- MIC (E. faecalis B3/101 (VRE); E. faecalis B3/101 (VRE)): 32 mg/L (≈ 73.6 µM)
- MBC (C. jejuni 4432): 64 mg/L (≈ 147 µM)
- MIC (C. jejuni 4432): 64 mg/L (≈ 147 µM)
- antibacterial activity (in words) (C. jejuni 4432): showed antimicrobial activity
- MBC (C. jejuni 4433): 64 mg/L (≈ 147 µM)
- MIC (C. jejuni 4433): 64 mg/L (≈ 147 µM)
- antibacterial activity (in words) (C. jejuni 4433): showed antimicrobial activity
- MBC (C. jejuni 4448): 64 mg/L (≈ 147 µM)
- MIC (C. jejuni 4448): 64 mg/L (≈ 147 µM)
- antibacterial activity (in words) (C. jejuni 4448): showed antimicrobial activity
- MBC (C. jejuni P5/4): 32 mg/L (≈ 73.6 µM)
- MIC (C. jejuni P5/4): 32 mg/L (≈ 73.6 µM)
- antibacterial activity (in words) (C. jejuni P5/4): active
- antibacterial activity (in words) (P. aeruginosa 33b (PDR); P. aeruginosa 33b): active
- MBC (P. aeruginosa 33b (PDR); P. aeruginosa 33b (PDR)): >64 mg/L
- MIC (P. aeruginosa 33b (PDR); P. aeruginosa 33b (PDR)): 64 mg/L (≈ 147 µM)
- MBC (S. aureus 66/1 (MRSA)): 32 mg/L (≈ 73.6 µM)
- MIC (S. aureus 66/1 (MRSA)): 32 mg/L (≈ 73.6 µM)
